# Data published in ChEMBL document CHEMBL4414548 (J Med Chem, 2019).
# Legend:
# [1] = Drug concentration in Balb/c mouse at 10 mg/kg, po after 3 hrs; type: ADME, organism-based; conditions: in vivo, read-out: Drug uptake
# [2] = Drug concentration in Balb/c mouse at 3 mg/kg, iv after 1 hr; type: ADME, organism-based; conditions: in vivo, read-out: Drug uptake
# [3] = molecular target: Tyrosine-protein kinase JAK1 (Homo sapiens, UniProt P23458); experiment: Inhibition of JAK1 JH1 domain (unknown origin)
# [4] = Drug concentration in Balb/c mouse at 3 mg/kg, iv after 7 hrs; type: ADME, organism-based; conditions: in vivo, read-out: Drug uptake
# [5] = molecular target: T1, Non-receptor tyrosine-protein kinase TYK2 (Homo sapiens, UniProt P29597); experiment: Inhibition of fluorescein-labeled kinase tracer binding to His-TVMV-fused TYK2 JH2 domain (575 to 869 residues) (unknown origin) measured after 90 mins by HTRF assay
# [6] = Half life in dog liver microsomes; type: ADME, Canis lupus familiaris, Microsome
# [7] = Permeability across apical to basolateral side in human Caco2 cells; type: ADME, cell-based; conditions: Caco-2, read-out: permeability
# [8] = molecular target: JAK2/TYK2 (Homo sapiens, UniProt O60674+P29597); experiment: Inhibition of TYK2/JAK2 in IL23-stimulated human Kit225 cells by steady-glo luciferase assay
# [9] = AUClast in Balb/c mouse at 3 mg/kg, iv; type: ADME, organism-based; set-up: dose 3 mg/kg, route intravenous, time 0 - last; conditions: in vivo
# [10] = Drug concentration in Balb/c mouse at 3 mg/kg, iv after 0.5 hrs; type: ADME, organism-based; conditions: in vivo, read-out: Drug uptake
# [11] = Cmax in Balb/c mouse assessed as 6-((5-Fluoropyridin-2-yl)amino)-4-((2-(methylsulfonyl)phenyl)amino)nicotinamide level at 10 mg/kg, po after 1 hr; type: ADME, organism-based; set-up: dose 10 mg/kg, route oral; conditions: in vivo
# [12] = Half life in human liver microsomes; type: ADME, Microsome
# [13] = Cmax in Balb/c mouse assessed as 6-((5-Fluoropyridin-2-yl)amino)-4-((2-(methylsulfonyl)phenyl)amino)nicotinamide level at 10 mg/kg, po after 0.05 hrs; type: ADME, organism-based; set-up: dose 10 mg/kg, route oral; conditions: in vivo
# [14] = Drug concentration in Balb/c mouse at 3 mg/kg, iv after 3 hrs; type: ADME, organism-based; conditions: in vivo, read-out: Drug uptake
# [15] = Drug concentration in Balb/c mouse at 3 mg/kg, iv after 5 hrs; type: ADME, organism-based; conditions: in vivo, read-out: Drug uptake
# [16] = Half life in Balb/c mouse at 3 mg/kg, iv; type: ADME, organism-based; conditions: in vivo
# [17] = Cmax in anesthetized rabbit at 1 to 10 mg/kg, iv; type: ADME, organism-based, Oryctolagus cuniculus; conditions: in vivo
# [18] = Cmax in Balb/c mouse assessed as 6-((5-Fluoropyridin-2-yl)amino)-4-((2-(methylsulfonyl)phenyl)amino)nicotinamide level at 3 mg/kg, iv after 3 hrs; type: ADME, organism-based; set-up: dose 3 mg/kg, route intravenous; conditions: in vivo
# [19] = Half life in mouse liver microsomes; type: ADME, Microsome
# [20] = Cmax in Balb/c mouse assessed as 6-((5-Fluoropyridin-2-yl)amino)-4-((2-(methylsulfonyl)phenyl)amino)nicotinamide level at 3 mg/kg, iv after 0.5 hrs; type: ADME, organism-based; set-up: dose 3 mg/kg, route intravenous; conditions: in vivo
# [21] = Cmax in Balb/c mouse assessed as 6-((5-Fluoropyridin-2-yl)amino)-4-((2-(methylsulfonyl)phenyl)amino)nicotinamide level at 3 mg/kg, iv after 5 hrs; type: ADME, organism-based; set-up: dose 3 mg/kg, route intravenous; conditions: in vivo
# [22] = Volume of distribution at steady state in Balb/c mouse at 3 mg/kg, iv; type: ADME, organism-based; conditions: in vivo, read-out: Vdss
# [23] = Drug concentration in Balb/c mouse at 10 mg/kg, po after 5 hrs; type: ADME, organism-based; conditions: in vivo, read-out: Drug uptake
# [24] = AUClast in Balb/c mouse at 10 mg/kg, po; type: ADME, organism-based; set-up: dose 10 mg/kg, time 0 - last, route oral; conditions: in vivo
# [25] = Cmax in Balb/c mouse assessed as 6-((5-Fluoropyridin-2-yl)amino)-4-((2-(methylsulfonyl)phenyl)amino)nicotinamide level at 10 mg/kg, po after 5 hrs; type: ADME, organism-based; set-up: dose 10 mg/kg, route oral; conditions: in vivo
# [26] = molecular target: Non-receptor tyrosine-protein kinase TYK2 (Mus musculus, UniProt Q9R117); experiment: Inhibition of TYK2 JH2 domain in mouse whole blood assessed as inhibition of IFNalpha-induced STAT1 phosphorylation preincubated for 1 hr followed by IFNalpha stimulation and measured after 15 mins by fluorescence assay; type: tissue-based
# [27] = Cmax in Balb/c mouse assessed as 6-((5-Fluoropyridin-2-yl)amino)-4-((2-(methylsulfonyl)phenyl)amino)nicotinamide level at 3 mg/kg, iv after 1 hr; type: ADME, organism-based; set-up: dose 3 mg/kg, route intravenous; conditions: in vivo
# [28] = molecular target: T1, Non-receptor tyrosine-protein kinase TYK2; experiment: Inhibition of TYK2 JH1 domain (unknown origin)
# [29] = Cmax in Balb/c mouse assessed as 6-((5-Fluoropyridin-2-yl)amino)-4-((2-(methylsulfonyl)phenyl)amino)nicotinamide level at 10 mg/kg, po after 3 hrs; type: ADME, organism-based; set-up: dose 10 mg/kg, route oral; conditions: in vivo
# [30] = Half life in cynomolgus monkey liver microsomes; type: ADME, Macaca fascicularis, Microsome
# [31] = Drug concentration in Balb/c mouse at 10 mg/kg, po after 1 hr; type: ADME, organism-based; conditions: in vivo, read-out: Drug uptake
# [32] = Metabolic stability in mouse liver microsomes assessed as parent compound remaining after 10 mins; type: ADME, Microsome; conditions: read-out: Stability
# [33] = Half life in rat liver microsomes; type: ADME, Microsome
# [34] = molecular target: Tyrosine-protein kinase JAK2 (Homo sapiens, UniProt O60674); experiment: Inhibition of JAK2 JH1 domain (unknown origin)
# [35] = Metabolic stability in rat liver microsomes assessed as parent compound remaining after 10 mins; type: ADME, Microsome; conditions: read-out: Stability
# [36] = Drug concentration in Balb/c mouse at 10 mg/kg, po after 7 hrs; type: ADME, organism-based; conditions: in vivo, read-out: Drug uptake
# [37] = Efflux ratio of permeability in human Caco2; type: ADME, cell-based; conditions: Caco-2
# [38] = molecular target: T1, Non-receptor tyrosine-protein kinase TYK2; experiment: Inhibition of TYK2 JH2 domain in human whole blood assessed as inhibition of IFNalpha-induced STAT5 phosphorylation preincubated for 1 hr followed by IFNalpha stimulation and measured after 15 mins by fluorescence assay; type: tissue-based
# [39] = Cmax in Balb/c mouse assessed as 6-((5-Fluoropyridin-2-yl)amino)-4-((2-(methylsulfonyl)phenyl)amino)nicotinamide level at 10 mg/kg, po after 0.5 hrs; type: ADME, organism-based; set-up: dose 10 mg/kg, route oral; conditions: in vivo
# [40] = Metabolic stability in human liver microsomes assessed as parent compound remaining after 10 mins; type: ADME, Microsome; conditions: read-out: Stability
# [41] = molecular target: JAK3/JAK1 (Homo sapiens, UniProt P23458+P52333); experiment: Inhibition of JAK1/JAK3 (unknown origin) in IL-2 stimulated cells by cell based assay
# [42] = Clearance in Balb/c mouse at 3 mg/kg, iv; type: ADME, organism-based; conditions: in vivo
# [43] = Drug concentration in Balb/c mouse at 10 mg/kg, po after 0.5 hrs; type: ADME, organism-based; conditions: in vivo, read-out: Drug uptake
# [44] = molecular target: JAK2/JAK1 (Homo sapiens, UniProt O60674+P23458); experiment: Inhibition of JAK1/JAK2 (unknown origin) in GM-CSF stimulated cells by cell based assay
# [45] = Cmax in Balb/c mouse assessed as 6-((5-Fluoropyridin-2-yl)amino)-4-((2-(methylsulfonyl)phenyl)amino)nicotinamide level at 10 mg/kg, po after 7 hrs; type: ADME, organism-based; set-up: dose 10 mg/kg, route oral; conditions: in vivo
# [46] = Drug concentration in Balb/c mouse at 10 mg/kg, po after 0.05 hrs; type: ADME, organism-based; conditions: in vivo, read-out: Drug uptake
# [47] = Drug concentration in Balb/c mouse at 3 mg/kg, iv after 0.05 hrs; type: ADME, organism-based; conditions: in vivo, read-out: Drug uptake
# [48] = Unbound drug level in rabbit at 1 to 10 mg/kg, iv; type: ADME, organism-based, Oryctolagus cuniculus; conditions: in vivo
# [49] = Cmax in Balb/c mouse assessed as 6-((5-Fluoropyridin-2-yl)amino)-4-((2-(methylsulfonyl)phenyl)amino)nicotinamide level at 3 mg/kg, iv after 0.05 hrs; type: ADME, organism-based; set-up: dose 3 mg/kg, route intravenous; conditions: in vivo
# [50] = Cmax in Balb/c mouse assessed as 6-((5-Fluoropyridin-2-yl)amino)-4-((2-(methylsulfonyl)phenyl)amino)nicotinamide level at 3 mg/kg, iv after 7 hrs; type: ADME, organism-based; set-up: dose 3 mg/kg, route intravenous; conditions: in vivo
# [51] = molecular target: JAK1/TYK2 (Homo sapiens, UniProt P23458+P29597); experiment: Inhibition of TYK2/JAK1 in IFNalpha-stimulated human Kit225 cells by steady-glo luciferase assay
# [52] = Cmax in mouse at 10 mg/kg, po after 7 hrs; type: ADME, organism-based; set-up: dose 10 mg/kg, route oral; conditions: in vivo
# [53] = AUClast in mouse at 10 mg/kg, po after 7 hrs; type: ADME, organism-based; set-up: time < 7 hr, dose 10 mg/kg, route oral; conditions: in vivo
# T1 sequence (P29597 whole entry, the tested form may be a part): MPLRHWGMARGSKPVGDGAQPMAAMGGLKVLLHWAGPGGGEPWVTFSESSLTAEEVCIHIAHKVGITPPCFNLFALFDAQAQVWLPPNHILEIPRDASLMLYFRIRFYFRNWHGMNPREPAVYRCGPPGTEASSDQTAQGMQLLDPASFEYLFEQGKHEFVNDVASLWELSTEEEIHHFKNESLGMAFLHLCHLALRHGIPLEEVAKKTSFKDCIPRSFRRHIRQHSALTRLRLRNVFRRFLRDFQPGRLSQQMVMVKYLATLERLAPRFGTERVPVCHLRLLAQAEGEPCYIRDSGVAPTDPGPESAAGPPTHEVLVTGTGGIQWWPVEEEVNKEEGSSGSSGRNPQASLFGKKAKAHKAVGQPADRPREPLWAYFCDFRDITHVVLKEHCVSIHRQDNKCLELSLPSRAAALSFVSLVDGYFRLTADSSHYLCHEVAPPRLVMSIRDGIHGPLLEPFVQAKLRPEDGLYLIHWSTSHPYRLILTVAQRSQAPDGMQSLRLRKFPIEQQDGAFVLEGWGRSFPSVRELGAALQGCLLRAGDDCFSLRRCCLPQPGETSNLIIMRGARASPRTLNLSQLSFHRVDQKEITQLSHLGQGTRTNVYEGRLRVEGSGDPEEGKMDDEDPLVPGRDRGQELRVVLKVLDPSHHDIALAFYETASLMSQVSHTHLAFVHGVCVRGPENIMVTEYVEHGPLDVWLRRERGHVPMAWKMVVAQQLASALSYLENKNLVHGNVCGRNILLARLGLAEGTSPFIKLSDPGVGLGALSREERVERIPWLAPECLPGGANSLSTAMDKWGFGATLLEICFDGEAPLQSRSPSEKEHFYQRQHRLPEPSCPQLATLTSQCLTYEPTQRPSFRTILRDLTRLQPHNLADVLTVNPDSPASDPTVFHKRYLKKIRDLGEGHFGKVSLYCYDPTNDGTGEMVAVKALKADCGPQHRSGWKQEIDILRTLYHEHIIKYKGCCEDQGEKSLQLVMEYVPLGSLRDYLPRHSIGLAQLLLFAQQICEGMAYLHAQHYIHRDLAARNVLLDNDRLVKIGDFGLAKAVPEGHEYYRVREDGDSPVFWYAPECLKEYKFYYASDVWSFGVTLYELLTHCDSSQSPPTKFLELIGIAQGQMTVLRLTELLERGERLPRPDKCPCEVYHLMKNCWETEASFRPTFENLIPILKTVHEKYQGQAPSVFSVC
# Tyrosine-protein kinase JAK2, sequence (O60674 whole entry, the tested form may be a part): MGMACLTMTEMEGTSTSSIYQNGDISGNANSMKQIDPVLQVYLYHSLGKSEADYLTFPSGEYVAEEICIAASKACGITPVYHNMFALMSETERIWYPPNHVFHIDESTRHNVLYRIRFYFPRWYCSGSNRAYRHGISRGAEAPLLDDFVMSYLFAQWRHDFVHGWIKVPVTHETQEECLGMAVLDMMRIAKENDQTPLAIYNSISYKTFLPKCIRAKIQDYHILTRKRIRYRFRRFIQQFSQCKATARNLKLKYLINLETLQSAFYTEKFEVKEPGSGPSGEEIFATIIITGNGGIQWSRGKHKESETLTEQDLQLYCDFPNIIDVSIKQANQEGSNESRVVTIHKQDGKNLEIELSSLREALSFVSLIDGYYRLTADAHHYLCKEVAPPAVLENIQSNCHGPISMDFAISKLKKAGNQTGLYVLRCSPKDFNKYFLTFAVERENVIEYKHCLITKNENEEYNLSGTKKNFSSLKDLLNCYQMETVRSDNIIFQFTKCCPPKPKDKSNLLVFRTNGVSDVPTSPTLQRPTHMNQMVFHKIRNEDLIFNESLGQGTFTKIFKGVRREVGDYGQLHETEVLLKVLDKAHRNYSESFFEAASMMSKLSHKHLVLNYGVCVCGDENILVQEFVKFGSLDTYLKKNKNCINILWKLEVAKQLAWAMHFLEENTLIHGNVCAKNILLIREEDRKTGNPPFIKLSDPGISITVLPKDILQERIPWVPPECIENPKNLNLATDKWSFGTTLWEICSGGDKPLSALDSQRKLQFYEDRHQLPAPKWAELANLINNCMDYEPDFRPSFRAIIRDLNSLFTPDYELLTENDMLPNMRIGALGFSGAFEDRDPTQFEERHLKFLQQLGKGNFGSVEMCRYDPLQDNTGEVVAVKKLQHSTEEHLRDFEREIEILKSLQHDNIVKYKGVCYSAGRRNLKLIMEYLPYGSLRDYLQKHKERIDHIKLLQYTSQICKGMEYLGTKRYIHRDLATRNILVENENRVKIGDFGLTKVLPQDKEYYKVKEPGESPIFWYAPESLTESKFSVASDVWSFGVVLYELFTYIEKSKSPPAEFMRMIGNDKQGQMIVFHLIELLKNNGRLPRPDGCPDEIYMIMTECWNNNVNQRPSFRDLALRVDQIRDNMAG
# JAK2/TYK2, sequence (O60674 whole entry): as the sequence (O60674 whole entry, the tested form may be a part) above
# JAK2/TYK2, sequence (P29597 whole entry): as the sequence (P29597 whole entry, the tested form may be a part) above
# Non-receptor tyrosine-protein kinase TYK2 (Mus musculus, UniProt Q9R117), sequence (Q9R117 whole entry, the tested form may be a part): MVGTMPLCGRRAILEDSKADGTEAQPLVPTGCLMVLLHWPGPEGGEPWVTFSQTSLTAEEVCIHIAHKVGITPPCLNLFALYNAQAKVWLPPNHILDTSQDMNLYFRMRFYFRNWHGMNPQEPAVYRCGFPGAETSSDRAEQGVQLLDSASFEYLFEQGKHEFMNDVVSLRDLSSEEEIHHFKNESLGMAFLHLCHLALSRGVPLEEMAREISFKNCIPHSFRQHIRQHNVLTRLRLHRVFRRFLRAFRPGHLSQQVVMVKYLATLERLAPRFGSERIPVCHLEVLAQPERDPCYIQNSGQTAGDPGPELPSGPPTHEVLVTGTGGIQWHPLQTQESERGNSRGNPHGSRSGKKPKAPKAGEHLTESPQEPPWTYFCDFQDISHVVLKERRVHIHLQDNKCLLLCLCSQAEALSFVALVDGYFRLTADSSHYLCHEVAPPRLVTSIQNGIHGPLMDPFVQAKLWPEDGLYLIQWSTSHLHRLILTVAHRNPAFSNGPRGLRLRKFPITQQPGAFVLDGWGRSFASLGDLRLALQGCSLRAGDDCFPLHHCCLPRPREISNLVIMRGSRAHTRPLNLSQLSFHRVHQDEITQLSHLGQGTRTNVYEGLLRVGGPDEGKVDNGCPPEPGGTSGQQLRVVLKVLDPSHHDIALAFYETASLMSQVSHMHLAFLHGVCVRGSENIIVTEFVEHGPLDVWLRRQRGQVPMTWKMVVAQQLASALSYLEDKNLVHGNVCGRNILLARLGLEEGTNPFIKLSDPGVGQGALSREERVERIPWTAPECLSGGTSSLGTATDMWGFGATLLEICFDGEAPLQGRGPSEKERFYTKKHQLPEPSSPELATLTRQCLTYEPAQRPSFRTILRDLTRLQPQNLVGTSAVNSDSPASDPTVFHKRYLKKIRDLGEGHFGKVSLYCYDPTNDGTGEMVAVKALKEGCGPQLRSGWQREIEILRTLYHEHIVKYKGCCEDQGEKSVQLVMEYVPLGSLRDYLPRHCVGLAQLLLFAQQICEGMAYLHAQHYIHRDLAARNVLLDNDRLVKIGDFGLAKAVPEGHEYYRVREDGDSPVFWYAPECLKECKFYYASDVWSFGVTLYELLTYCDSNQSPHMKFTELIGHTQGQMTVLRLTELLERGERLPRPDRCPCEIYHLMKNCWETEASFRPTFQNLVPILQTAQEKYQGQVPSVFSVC
# JAK2/JAK1, sequence (P23458 whole entry): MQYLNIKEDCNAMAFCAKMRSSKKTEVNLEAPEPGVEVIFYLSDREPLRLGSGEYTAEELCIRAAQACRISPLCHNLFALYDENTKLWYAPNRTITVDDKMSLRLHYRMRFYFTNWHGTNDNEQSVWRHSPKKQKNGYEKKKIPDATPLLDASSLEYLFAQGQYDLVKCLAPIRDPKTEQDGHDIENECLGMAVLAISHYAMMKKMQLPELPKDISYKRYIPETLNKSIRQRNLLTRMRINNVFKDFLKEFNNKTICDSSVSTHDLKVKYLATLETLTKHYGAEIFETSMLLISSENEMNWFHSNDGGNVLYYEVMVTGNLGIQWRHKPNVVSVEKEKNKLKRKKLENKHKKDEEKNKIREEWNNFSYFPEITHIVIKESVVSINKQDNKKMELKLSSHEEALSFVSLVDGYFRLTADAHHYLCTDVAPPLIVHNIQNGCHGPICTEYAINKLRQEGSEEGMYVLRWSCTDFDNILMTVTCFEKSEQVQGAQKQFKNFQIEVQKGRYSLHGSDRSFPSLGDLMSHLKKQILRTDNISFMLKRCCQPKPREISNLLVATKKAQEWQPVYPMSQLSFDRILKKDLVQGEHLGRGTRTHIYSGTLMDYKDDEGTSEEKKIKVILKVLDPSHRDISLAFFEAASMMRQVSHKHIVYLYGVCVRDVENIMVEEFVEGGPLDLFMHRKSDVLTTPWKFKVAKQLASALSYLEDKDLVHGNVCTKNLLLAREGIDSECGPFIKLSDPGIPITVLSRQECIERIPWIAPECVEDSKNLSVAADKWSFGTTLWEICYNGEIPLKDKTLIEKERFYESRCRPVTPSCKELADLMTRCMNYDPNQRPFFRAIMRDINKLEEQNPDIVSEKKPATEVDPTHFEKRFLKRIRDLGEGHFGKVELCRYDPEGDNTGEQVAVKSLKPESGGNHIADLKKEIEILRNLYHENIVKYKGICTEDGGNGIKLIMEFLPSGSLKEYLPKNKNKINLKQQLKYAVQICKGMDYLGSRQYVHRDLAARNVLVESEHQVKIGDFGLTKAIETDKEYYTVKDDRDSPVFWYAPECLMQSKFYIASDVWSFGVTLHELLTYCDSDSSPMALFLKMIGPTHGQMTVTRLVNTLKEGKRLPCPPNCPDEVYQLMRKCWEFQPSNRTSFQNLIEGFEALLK
# JAK2/JAK1, sequence (O60674 whole entry): as the sequence (O60674 whole entry, the tested form may be a part) above
# JAK1/TYK2, sequence (P23458 whole entry): as the sequence (P23458 whole entry) above
# JAK1/TYK2, sequence (P29597 whole entry): as the sequence (P29597 whole entry, the tested form may be a part) above
# Tyrosine-protein kinase JAK1, sequence (P23458 whole entry, the tested form may be a part): as the sequence (P23458 whole entry) above
structure (smiles),measurement,setting,value
[2H]C([2H])([2H])NC(=O)c1cnc(Nc2ccc(F)cn2)cc1Nc1ccccc1S(C)(=O)=O,concentration at 3 h,[1],1300 nM
same,concentration at 1 h,[2],1500 nM
same,IC50,[3],> 2 µM
same,concentration at 7 h,[4],47 nM
same,IC50,[5],0.00049 µM
same,half-life,[6],16 min
same,Papp A→B,[7],5.8 ×10⁻⁶ cm/s
same,IC50,[8],0.11 µM
same,AUC(0-t),[9],5 µM·h
same,concentration at 0.5 h,[10],2400 nM
same,Cmax,[11],4.9 nM
same,half-life,[12],69 min
same,Cmax,[13],4.9 nM
same,concentration at 3 h,[14],470 nM
same,concentration at 5 h,[15],270 nM
same,half-life,[16],72 min
same,Cmax,[17],20200 nM
same,Cmax,[18],4.9 nM
same,half-life,[19],35 min
same,Cmax,[20],4.9 nM
same,Cmax,[21],4.9 nM
same,Vd,[22],2.7 L/kg
same,concentration at 5 h,[23],1300 nM
same,AUC(0-t),[24],7.8 µM·h
same,Cmax,[25],4.9 nM
same,IC50,[26],0.6 µM
same,Cmax,[27],4.9 nM
same,IC50,[28],> 50 µM
same,Cmax,[29],4.9 nM
same,half-life,[30],6 min
same,concentration at 1 h,[31],1400 nM
same,remaining at 10 min,[32],81%
same,half-life,[33],44 min
same,IC50,[34],> 50 µM
same,remaining at 10 min,[35],91%
same,concentration at 7 h,[36],260 nM
same,efflux ratio,[37],9.3
same,IC50,[38],0.16 µM
same,Cmax,[39],4.9 nM
same,remaining at 10 min,[40],85%
same,IC50,[41],> 12.5 µM
same,clearance,[42],25 mL/min/kg
same,concentration at 0.5 h,[43],1400 nM
same,IC50,[44],> 12.5 µM
same,Cmax,[45],4.9 nM
same,concentration at 0.05 h,[46],750 nM
same,concentration at 0.05 h,[47],2800 nM
same,fraction unbound,[48],0.13
same,Cmax,[49],4.9 nM
same,Cmax,[50],4.9 nM
same,IC50,[51],0.053 µM
same,Cmax,[52],1440 nM
same,AUC(0-t) at 7 h,[53],7.83 µM·h
